In patent publication US20220409619A1, “INHIBITORS OF HUMAN IMMUNODEFICIENCY VIRUS REPLICATION” (VIIV HEALTHCARE UK (No. 5) LIMITED, priority 2019, published 2022):

Legend:
[1] = test system: recombinant NL4-3 virus (nef section replaced with Renilla luciferase gene) in MT-2 cells; test: HIV cell culture assay (antiviral activity, luciferase readout); type: cell-based; conditions: Renilla, NL43
Procedure, shortened: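 MT-2 cells were infected for 4-5 days with 293T-derived NL4-3 Renilla-luciferase reporter virus in the presence of serial compound dilutions. Luciferase was read with EnduRen live-cell substrate. EC50 was fitted with the median effect equation.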

[2] = Compound cytotoxicity, XTT-based colorimetric assay; type: cell-based; conditions: human; uninfected MT2 cells, day 4, XTT-based colorimetric assay
Procedure, shortened: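 Run under the antiviral-assay protocol but without virus. Viability was read on day 4 and CC50 values were derived from the readout.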

Row | Structure (SMILES) | EC50 [1] | CC50 at 4 days [2]
1 | Cn1nc(NS(C)(=O)=O)c2c(Cl)ccc(-n3c([C@H](Cc4cc(F)cc(F)c4)NC(=O)Cn4nc(C(F)F)c5c4C(F)(F)[C@@H]4C[C@H]54)nc(-c4cnccn4)cc3=O)c21 (atropisomer, axis not shown; (P)) [Example 20, N-((S)-1-((1P)-1-(4-chloro-1-methyl-3-(methylsulfonamido)-1H-indazol-7-yl)-6-oxo-4-(pyrazin-2-yl)-1,6-dihydropyrimidin-2-yl)-2-(3,5-difluorophenyl)ethyl)-2-((3bS,4aR)-3-(difluoromethyl)-5,5-difluoro-3b,4,4a,5-tetrahydro-1H-cyclopropa[3,4]cyclopenta[1,2-c]pyrazol-1-yl)acetamide] | 0.16 nM | > 100 nM
2 | O=C(Cn1nc(C(F)(F)F)c2c1C(F)(F)[C@@H]1C[C@H]21)N[C@@H](Cc1cc(F)cc(F)c1)c1nc(-c2nccc(C(F)F)n2)cc(=O)n1-c1ccc(Cl)c2c(NS(=O)(=O)C3CC3)nn(CC(F)F)c12 (atropisomer, axis not shown; (aR)) [Example 32, N-((S)-1-((1′P)-1′-(4-chloro-3-(cyclopropanesulfonamido)-1-(2,2-difluoroethyl)-1H-indazol-7-yl)-4-(difluoromethyl)-6′-oxo-1′,6′-dihydro-[2,4′-bipyrimidin]-2′-yl)-2-(3,5-difluorophenyl)ethyl)-2-((3bS,4aR)-5,5-difluoro-3-(trifluoromethyl)-3b,4,4a,5-tetrahydro-1H-cyclopropa[3,4]cyclopenta[1,2-c]pyrazol-1-yl)acetamide] | 0.3 nM | > 100 nM
3 | CCOc1cnc(-c2cc(=O)n(-c3ccc(Cl)c4c(NS(C)(=O)=O)nn(C)c34)c([C@H](Cc3cc(F)cc(F)c3)NC(=O)Cn3nc(C(F)F)c4c3C(F)(F)[C@@H]3C[C@H]43)n2)nc1 (atropisomer, axis not shown; (aR)) [Example 14, N-((S)-1-((1′P)-1′-(4-chloro-1-methyl-3-(methylsulfonamido)-1H-indazol-7-yl)-5-ethoxy-6′-oxo-1′,6′-dihydro-[2,4′-bipyrimidin]-2′-yl)-2-(3,5-difluorophenyl)ethyl)-2-((3bS,4aR)-3-(difluoromethyl)-5,5-difluoro-3b,4,4a,5-tetrahydro-1H-cyclopropa[3,4]cyclopenta[1,2-c]pyrazol-1-yl)acetamide] | 0.042 nM | > 100 nM
4 | Cn1nc(NS(C)(=O)=O)c2c(Cl)ccc(-n3c([C@H](Cc4cc(F)cc(F)c4)NC(=O)Cn4nc(C(F)F)c5c4C(F)(F)[C@@H]4C[C@H]54)nc(-c4ccccc4)cc3=O)c21 (atropisomer, axis not shown; (aR)) [Example 1, N-((S)-1-(1-(4-chloro-1-methyl-3-(methylsulfonamido)-1H-indazol-7-yl)-6-oxo-4-phenyl-1,6-dihydropyrimidin-2-yl)-2-(3,5-difluorophenyl)ethyl)-2-((3bS,4aR)-3-(difluoromethyl)-5,5-difluoro-3b,4,4a,5-tetrahydro-1H-cyclopropa[3,4]cyclopenta[1,2-c]pyrazol-1-yl)acetamide] | 0.72 nM | > 500 nM
5 | O=C(Cn1nc(C(F)F)c2c1C(F)(F)[C@@H]1C[C@H]21)N[C@@H](Cc1cc(F)cc(F)c1)c1nc(-c2nccc(C(F)F)n2)cc(=O)n1-c1ccc(Cl)c2c(NS(=O)(=O)C3CC3)nn(CC(F)F)c12 (atropisomer, axis not shown; (aR)) [Example 27, N-((S)-1-((1′P)-1′-(4-chloro-3-(cyclopropanesulfonamido)-1-(2,2-difluoroethyl)-1H-indazol-7-yl)-4-(difluoromethyl)-6′-oxo-1′,6′-dihydro-[2,4′-bipyrimidin]-2′-yl)-2-(3,5-difluorophenyl)ethyl)-2-((3bS,4aR)-3-(difluoromethyl)-5,5-difluoro-3b,4,4a,5-tetrahydro-1H-cyclopropa[3,4]cyclopenta[1,2-c]pyrazol-1-yl)acetamide] | 0.13 nM | > 100 nM
6 | CCc1cnc(-c2cc(=O)n(-c3ccc(Cl)c4c(NS(=O)(=O)C5CC5)nn(CC(F)F)c34)c([C@H](Cc3cc(F)cc(F)c3)NC(=O)Cn3nc(C(F)F)c4c3C(F)(F)[C@@H]3C[C@H]43)n2)nc1 (atropisomer, axis not shown; (aR)) [Example 39, N-((S)-1-((1′P)-1′-(4-chloro-3-(cyclopropanesulfonamido)-1-(2,2-difluoroethyl)-1H-indazol-7-yl)-5-ethyl-6′-oxo-1′,6′-dihydro-[2,4′-bipyrimidin]-2′-yl)-2-(3,5-difluorophenyl)ethyl)-2-((3bS,4aR)-3-(difluoromethyl)-5,5-difluoro-3b,4,4a,5-tetrahydro-1H-cyclopropa[3,4]cyclopenta[1,2-c]pyrazol-1-yl)acetamide] | 0.059 nM | > 100 nM
7 | Cn1nc(NS(C)(=O)=O)c2c(Cl)ccc(-n3c([C@H](Cc4cc(F)cc(F)c4)NC(=O)Cn4nc(C(F)F)c5c4C(F)(F)[C@@H]4C[C@H]54)nc(-c4ccc(Cl)cn4)cc3=O)c21 (atropisomer, axis not shown; (P)) [Example 24, N-((S)-1-((1P)-1-(4-chloro-1-methyl-3-(methylsulfonamido)-1H-indazol-7-yl)-4-(5-chloropyridin-2-yl)-6-oxo-1,6-dihydropyrimidin-2-yl)-2-(3,5-difluorophenyl)ethyl)-2-((3bS,4aR)-3-(difluoromethyl)-5,5-difluoro-3b,4,4a,5-tetrahydro-1H-cyclopropa[3,4]cyclopenta[1,2-c]pyrazol-1-yl)acetamide] | 0.37 nM | > 100 nM
8 | Cc1cc(C)nc(-c2cc(=O)n(-c3ccc(Cl)c4c(NS(C)(=O)=O)nn(C)c34)c([C@H](Cc3cc(F)cc(F)c3)NC(=O)Cn3nc(C(F)F)c4c3C(F)(F)[C@@H]3C[C@H]43)n2)n1 (atropisomer, axis not shown; (aR)) [Example 4, N-((S)-1-((1′P)-1′-(4-chloro-1-methyl-3-(methylsulfonamido)-1H-indazol-7-yl)-4,6-dimethyl-6′-oxo-1′,6′-dihydro-[2,4′-bipyrimidin]-2′-yl)-2-(3,5-difluorophenyl)ethyl)-2-((3bS,4aR)-3-(difluoromethyl)-5,5-difluoro-3b,4,4a,5-tetrahydro-1H-cyclopropa[3,4]cyclopenta[1,2-c]pyrazol-1-yl)acetamide] | 0.044 nM | > 100 nM
9 | Cn1nc(NS(C)(=O)=O)c2c(Cl)ccc(-n3c([C@H](Cc4cc(F)cc(F)c4)NC(=O)Cn4nc(C(F)F)c5c4C(F)(F)[C@@H]4C[C@H]54)nc(-c4cnc(C(C)(F)F)s4)cc3=O)c21 (atropisomer, axis not shown; (P)) [Example 15, N-((S)-1-((1P)-1-(4-chloro-1-methyl-3-(methylsulfonamido)-1H-indazol-7-yl)-4-(2-(1,1-difluoroethyl)thiazol-5-yl)-6-oxo-1,6-dihydropyrimidin-2-yl)-2-(3,5-difluorophenyl)ethyl)-2-((3bS,4aR)-3-(difluoromethyl)-5,5-difluoro-3b,4,4a,5-tetrahydro-1H-cyclopropa[3,4]cyclopenta[1,2-c]pyrazol-1-yl)acetamide] | 0.59 nM | > 100 nM
10 | COC(C)(C)C#Cc1cc(=O)n(-c2ccc(Cl)c3c(NS(C)(=O)=O)nn(C)c23)c([C@H](Cc2cc(F)cc(F)c2)NC(=O)Cn2nc(C(F)F)c3c2C(F)(F)[C@@H]2C[C@H]32)n1 (atropisomer, axis not shown; (P)) [Example 9, N-((S)-1-((1P)-1-(4-chloro-1-methyl-3-(methylsulfonamido)-1H-indazol-7-yl)-4-(3-methoxy-3-methylbut-1-yn-1-yl)-6-oxo-1,6-dihydropyrimidin-2-yl)-2-(3,5-difluorophenyl)ethyl)-2-((3bS,4aR)-3-(difluoromethyl)-5,5-difluoro-3b,4,4a,5-tetrahydro-1H-cyclopropa[3,4]cyclopenta[1,2-c]pyrazol-1-yl)acetamide] | 0.04 nM | > 100 nM
11 | O=C(Cn1nc(C(F)F)c2c1C(F)(F)[C@@H]1C[C@H]21)N[C@@H](Cc1cc(F)cc(F)c1)c1nc(-c2nccc(C(F)(F)F)n2)cc(=O)n1-c1ccc(Cl)c2c(NS(=O)(=O)C3CC3)nn(CC(F)F)c12 (atropisomer, axis not shown; (aR)) [Example 46, N-((S)-1-((1′P)-1′-(4-chloro-3-(cyclopropanesulfonamido)-1-(2,2-difluoroethyl)-1H-indazol-7-yl)-6′-oxo-4-(trifluoromethyl)-1′,6′-dihydro-[2,4′-bipyrimidin]-2′-yl)-2-(3,5-difluorophenyl)ethyl)-2-((3bS,4aR)-3-(difluoromethyl)-5,5-difluoro-3b,4,4a,5-tetrahydro-1H-cyclopropa[3,4]cyclopenta[1,2-c]pyrazol-1-yl)acetamide] | 0.05 nM | > 100 nM
12 | Cc1ccnc(-c2cc(=O)n(-c3ccc(Cl)c4c(NS(C)(=O)=O)nn(C)c34)c([C@H](Cc3cc(F)cc(F)c3)NC(=O)Cn3nc(C(F)F)c4c3C(F)(F)[C@@H]3C[C@H]43)n2)c1 (atropisomer, axis not shown; (P)) [Example 16, N-((S)-1-((1P)-1-(4-chloro-1-methyl-3-(methylsulfonamido)-1H-indazol-7-yl)-4-(4-methylpyridin-2-yl)-6-oxo-1,6-dihydropyrimidin-2-yl)-2-(3,5-difluorophenyl)ethyl)-2-((3bS,4aR)-3-(difluoromethyl)-5,5-difluoro-3b,4,4a,5-tetrahydro-1H-cyclopropa[3,4]cyclopenta[1,2-c]pyrazol-1-yl)acetamide] | 0.31 nM | > 100 nM
